In US11655258B2, “Heterocycle derivatives as pesticides” (BAYER AKTIENGESELLSCHAFT, priority 2017, dated 2023):

Columns and labels:
Ctenocephalides felis [1] = test: Ctenocephalides felis in vitro contact test with adult cat fleas; type: in vivo; details: application rate 5 μg/cm^2 (=500 g of ai/ha), after 48 h
Protocol: Ctenocephalides felis—In Vitro Contact Tests with Adult Cat Fleas
(§1) For the coating of the test tubes, 9 mg of active compound are first dissolved in 1 ml of acetone p.a. and then diluted to the desired concentration with acetone p.a. 250 μl of the solution are distributed homogeneously on the inner walls and the base of a 25 ml glass tube by turning and rocking on an orbital shaker (rocking rotation at 30 rpm for 2 h). With 900 ppm of active compound solution and internal surface area 44.7 cm^2, given homogeneous distribution, an area-based dose of 5 μg/cm^2 is achieved.
After the solvent has evaporated off, the tubes are populated with 5-10 adult cat fleas (Ctenocephalides felis), sealed with a perforated plastic lid and incubated in a horizontal position at room temperature and ambient humidity. After 48 h, efficacy is determined. To this end, the tubes are stood upright and the fleas are knocked to the base of the tube. Fleas which remain motionless at the base or move in an uncoordinated manner are considered to be dead or moribund.
100% efficacy means that all the fleas were dead or moribund. 0% efficacy means that no fleas were harmed.

Ctenocephalides felis [2] = test: Ctenocephalides felis oral test; type: in vivo; details: application rate 100 ppm in citrated cattle blood, after 2 days
Protocol: Ctenocephalides felis—Oral Test • Solvent: dimethyl sulfoxide
To produce a suitable active compound formulation, 10 mg of active compound are mixed with 0.5 ml of dimethyl sulfoxide. Dilution with citrated cattle blood gives the desired concentration.
About 20 unfed adult cat fleas (Ctenocephalides felis) are placed into a chamber which is closed at the top and bottom with gauze. A metal cylinder whose bottom end is closed with parafilm is placed onto the chamber. The cylinder contains the blood/active compound formulation, which can be imbibed by the fleas through the parafilm membrane.
After 2 days, the kill in % is determined. 100% means that all of the fleas have been killed; 0% means that none of the fleas have been killed.

Lucilia cuprina = Lucilia cuprina test; type: in vivo; details: application rate 100 ppm, L1 larvae, after 2 days
Protocol: Lucilia cuprina Test • Solvent: dimethyl sulfoxide
(§2) To produce a suitable active compound formulation, 10 mg of active compound are mixed with 0.5 ml of dimethyl sulfoxide, and the concentrate is diluted with water to the desired concentration.
About 20 L1 larvae of the Australian sheep blowfly (Lucilia cuprina) are transferred into a test vessel containing minced horsemeat and the active compound formulation of the desired concentration.
After 2 days, the kill in % is determined. 100% means that all the larvae have been killed; 0% means that no larvae have been killed.

Myzus persicae [3] = test: Myzus persicae oral test; type: in vivo; details: 120 h, application rate 4 ppm, after 5 days, read-out: efficacy
Protocol: Myzus persicae Oral Test • Solvent: 100 parts by weight of acetone
To produce a suitable preparation of active compound, 1 part by weight of active compound is dissolved using the specified parts by weight of solvent and made up with water until the desired concentration is attained.
50 μl of the active compound preparation are transferred into microtitre plates and made up to a final volume of 200 μl with 150 μl of IPL41 insect medium (33%+15% sugar). Subsequently, the plates are sealed with parafilm, which a mixed population of green peach aphids (Myzus persicae) within a second microtitre plate is able to puncture and imbibe the solution through.
(§3) After 5 days, the efficacy in % is determined. 100% means that all the aphids have been killed; 0% means that no aphids have been killed.

Phaedon cochleariae = Phaedon cochleariae spray test; type: in vivo; details: 168 h, after 7 days, read-out: efficacy; for pest or weed control at 20 g/ha: application rate 20 g/ha; for pest or weed control at 100 g/ha: application rate 100 g/ha
Protocol: Phaedon cochleariae—Spray Test • Solvent: 78.0 parts by weight of acetone • 1.5 parts by weight of dimethylformamide • Emulsifier: alkylaryl polyglycol ether
(§4) To produce a suitable active compound preparation, 1 part by weight of active compound is dissolved using the stated parts by weight of solvent and made up with water containing an emulsifier concentration of 1000 ppm until the desired concentration is attained. To produce further test concentrations, the formulation is diluted with emulsifier-containing water.
Discs of Chinese cabbage leaves (Brassica pekinensis) are sprayed with an active compound formulation of the desired concentration and, after drying, populated with larvae of the mustard beetle (Phaedon cochleariae).
After 7 days, the efficacy in % is determined. 100% means that all the beetle larvae have been killed; 0% means that no beetle larvae have been killed.

Spodoptera frugiperda = Spodoptera frugiperda spray test; type: in vivo; details: application rate 100 g/ha, after 7 days
Protocol: Spodoptera frugiperda—Spray Test • Solvent: 78.0 parts by weight of acetone • 1.5 parts by weight of dimethylformamide • Emulsifier: alkylaryl polyglycol ether
as §4
Leaf discs of maize (Zea mays) are sprayed with an active compound formulation of the desired concentration and, after drying, populated with caterpillars of the fall armyworm (Spodoptera frugiperda).
After 7 days, the efficacy in % is determined. 100% means that all the caterpillars have been killed; 0% means that no caterpillar has been killed.

Aphis gossypii = Aphis gossypii spray test (APHIGO); type: in vivo; details: 144 h, 6 dat, read-out: % efficacy
Protocol: Aphis gossypii Spray Test (APHIGO) • Solvent: 14 parts by weight of dimethylformamide • Emulsifier: alkylaryl polyglycol ether
as §4, with “water. If the addition of ammonium salts or/and penetrants is required, these are each added in a concentration of 1000 ppm to the formulation solution.” for “water.”
Cotton plants (Gossypium hirsutum) heavily infested by the cotton aphid (Aphis gossypii) are sprayed with an active compound formulation of the desired concentration.
After the desired time, the kill in % is determined. 100% means that all the aphids have been killed; 0% means that no aphids have been killed.

Myzus persicae [4] = test: Myzus persicae spray test (MYZUPE S), bell pepper plants; type: in vivo; details: 144 h, 6 dat, read-out: % efficacy
Protocol: Myzus persicae—Spray Test (MYZUPE S) • Solvent: 14 parts by weight of dimethylformamide • Emulsifier: alkylaryl polyglycol ether
as §4, with “water. If the addition of ammonium salts or/and penetrants is required, these are each added in a concentration of 1000 ppm to the formulation solution.” for “water.”
Bell pepper plants (Capsicum annuum) severely infested with the green peach aphid (Myzus persicae) are treated by spraying with the active compound formulation in the desired concentration.
After the desired time, the kill in % is determined. 100% means that all the animals have been killed; 0% means that no animals have been killed.

Myzus persicae [5] = test: Myzus persicae drench test (MYZUPE D), savoy cabbage; type: in vivo; details: soil, 240 h, 10 dat, read-out: % efficacy
Protocol: Myzus persicae—Drench Test (MYZUPE D) • Solvent: 7 parts by weight of dimethylformamide • Emulsifier: 2 parts by weight of alkylaryl polyglycol ether
To produce a suitable active compound preparation, 1 part by weight of active compound is mixed with the specified amounts of solvent and emulsifier, and the concentrate is diluted with water to the desired concentration, it being necessary to include the volume of soil which is drenched in the calculation. It should be ensured that a concentration of 40 ppm of emulsifier in the soil is not exceeded. To produce further test concentrations, water is used for dilution.
Savoy cabbage (Brassica oleracea) in pots with soil and infested by all stages of the green peach aphid (Myzus persicae) is watered with an active compound preparation of the desired concentration.
After the desired period of time, the efficacy in % is determined. 100% means that all the aphids have been killed; 0% means that no aphids have been killed.

Nilaparvata lugens = Nilaparvata lugens spray test (NILALU); type: in vivo; details: 96 h, 500 g/ha, 4 dat, read-out: % efficacy
Protocol: Nilaparvata lugens—Spray Test (NILALU) • Solvent: 52.5 parts by weight of acetone • 7 parts by weight of dimethylformamide • Emulsifier: alkylaryl polyglycol ether
as §4, with “water. If the addition of ammonium salts or/and penetrants is required, these are each added in a concentration of 1000 ppm to the formulation solution.” for “water.”
Rice plants (Oryza sativa) are sprayed with an active ingredient formulation of the desired concentration and then populated with larvae of the brown planthopper (Nilaparvata lugens).
After the desired period of time, the efficacy in % is determined. 100% means that all of the planthoppers have been killed; 0% means that none of the planthoppers have been killed.

[6] = log P by HPLC on reversed-phase column (EEC Directive 79/831 Annex V.A8); type: physicochemical; details: reversed-phase HPLC column (C18); pH 7.8, 0.001 molar aqueous ammonium bicarbonate/acetonitrile, 55° C.; read-out: log P (neutral)
Protocol: The log P values are measured according to EEC Directive 79/831 Annex V.A8 by HPLC (high-performance liquid chromatography) on a reversed-phase column (C 18). Temperature: 55° C.
The LC-MS determination in the neutral range is effected at pH 7.8 with 0.001 molar aqueous ammonium bicarbonate solution and acetonitrile as mobile phases; linear gradient from 10% acetonitrile to 95% acetonitrile. Called log P (neutral) in the table.
Calibration is carried out using unbranched alkan-2-ones (having 3 to 16 carbon atoms) with known Log P values (Log P values determined on the basis of the retention times by linear interpolation between two successive alkanones).

Boophilus microplus = Boophilus microplus injection test; type: in vivo; details: application rate 20 μg/animal, laying of fertile eggs after 7 days
Protocol: Boophilus microplus Injection Test • Solvent: dimethyl sulfoxide
To produce a suitable active compound formulation, 10 mg of active compound are mixed with 0.5 ml of solvent and the concentrate is diluted to the desired concentration with solvent.
1 μl of the active compound solution is injected into the abdomen of 5 engorged adult female cattle ticks (Boophilus microplus). The animals are transferred into dishes and kept in a climate-controlled room.
Efficacy is assessed after 7 days by laying of fertile eggs. Eggs which are not visibly fertile are stored in a climate-controlled cabinet until the larvae hatch after about 42 days. An efficacy of 100% means that none of the ticks has laid any fertile eggs; 0% means that all the eggs are fertile.

Musca domestica = Musca domestica test; type: in vivo; details: application rate 100 ppm, adult houseflies, after 2 days
Protocol: Musca domestica Test • Solvent: dimethyl sulfoxide
as §2
Vessels containing a sponge treated with sugar solution and the desired concentration of active compound formulation are populated with 10 adult houseflies (Musca domestica).
After 2 days, the kill in % is determined. 100% means that all of the flies have been killed; 0% means that none of the flies have been killed.

Rhipicephalus sanguineus = Rhipicephalus sanguineus in vitro contact test with adult brown dog ticks; type: in vivo; details: application rate 1 μg/cm^2 (=100 g of ai/ha), after 48 h
Protocol: Rhipicephalus sanguineus—In Vitro Contact Tests with Adult Brown Doe Ticks
as §1
After the solvent has evaporated off, the tubes are populated with 5-10 adult dog ticks (Rhipicephalus sanguineus), sealed with a perforated plastic lid and incubated in a horizontal position in the dark at room temperature and ambient humidity. After 48 h, efficacy is determined. To this end, the ticks are knocked to the base of the tube and incubated on a hotplate at 45-50° C. for not more than 5 min. Ticks which remain motionless on the base or move in such an uncoordinated manner that they are unable to deliberately avoid the heat by climbing upwards are considered to be dead or moribund.
An efficacy of 100% means that all the ticks were dead or moribund. 0% efficacy means that none of the ticks were harmed.

Myzus persicae [7] = test: Myzus persicae spray test (Chinese cabbage leaf discs); type: in vivo; details: foliar, 120 h, application rate 100 g/ha, after 5 days, read-out: efficacy
Protocol: Myzus persicae Spray Test • Solvent: 78 parts by weight of acetone • 1.5 parts by weight of dimethylformamide • Emulsifier: alkylaryl polyglycol ether
as §4
Discs of Chinese cabbage leaves (Brassica pekinensis) infested by all stages of the green peach aphid (Myzus persicae) are sprayed with an active compound formulation of the desired concentration.
as §3

Structure (SMILES) | efficacy (Ctenocephalides felis [1]) [%] | efficacy (kill) (Ctenocephalides felis [2]) [%] | efficacy (kill) (Lucilia cuprina) [%] | pest or weed control at 4 ppm (Myzus persicae [3]) [%] | pest or weed control at 20 g/ha (Phaedon cochleariae) [%] | pest or weed control at 100 g/ha (Phaedon cochleariae) [%] | efficacy (Spodoptera frugiperda) [%] | Emax at 20 ppm (Aphis gossypii) [%] | Emax at 20 ppm (Myzus persicae [4]) [%] | Emax at 20 ppm (Myzus persicae [5]) [%] | Emax at 500 g/ha (Nilaparvata lugens) [%] | chromatographic logP [6] | efficacy (Boophilus microplus) [%] | efficacy (kill) (Musca domestica) [%] | efficacy (Rhipicephalus sanguineus) [%] | pest or weed control at 100 g/ha (Myzus persicae [7]) [%]
CCS(=O)(=O)c1c(-c2nc3ccc(C(F)(F)F)cn3n2)nc2cc(C(F)(F)F)ccn12 [Example I-01] | 100 | 100 | 100 | 100 | 100 | 100 | 100 | 99 | 95 | 90 | 80 | 2.41 |  |  |  | 
CCS(=O)(=O)c1c(-c2nc3ccc(C(F)(F)F)cn3n2)nc2cc(NC(=O)C3CC3)ccn12 [Example I-09] |  | 95 |  | 100 |  |  |  |  |  |  |  |  | 100 |  |  | 
CCS(=O)(=O)c1c(-c2nc3ccc(C(F)(F)F)cn3n2)nc2cc(I)ccn12 [Example I-12] | 100 |  | 100 | 90 | 100 | 100 | 100 |  |  |  |  |  |  | 90 |  | 
CCS(=O)(=O)c1cc2ccccc2nc1-c1nc2cc(C(F)(F)F)ncn2n1 [Example I-05] | 100 | 95 | 100 | 100 | 100 | 100 | 100 |  |  |  |  |  |  |  | 80 | 90
